According to ChEMBL document CHEMBL1158870, “Antitumor agents. 180. Chemical Studies and cytotoxic evaluation of cumingianosides and cumindysoside A, antileukemic triterpene glucosides with a 14,18-cycloapotirucallane skeleton” (1997):

What was measured:
[1] = test system: NCI-H460; assay: Cytotoxicity against human NCI-H460 cells by SRB assay; format: functional
[2] = test system: RPMI-8226; assay: Cytotoxicity against human RPMI8226 cells by SRB assay; format: functional
[3] = test system: HOP-62; assay: Cytotoxicity against human HOP62 cells by SRB assay; format: functional
[4] = test system: SF-295; assay: Cytotoxicity against human SF295 cells by SRB assay; format: functional
[5] = test system: NCI-H522; assay: Cytotoxicity against human NCI-H522 cells by SRB assay; format: functional
[6] = test system: HCC 2998; assay: Cytotoxicity against human HCC2998 cells by SRB assay; format: functional
[7] = test system: M14; assay: Cytotoxicity against human M14 cells by SRB assay; format: functional
[8] = test system: LOX IMVI; assay: Cytotoxicity against human LOXIMVI cells by SRB assay; format: functional
[9] = test system: NCI-H322M; assay: Cytotoxicity against human NCI-H322M cells by SRB assay; format: functional
[10] = test system: SF-268; assay: Cytotoxicity against human SF268 cells by SRB assay; format: functional
[11] = test system: MCF7; assay: Cytotoxicity against human MCF7 cells by SRB assay; format: functional
[12] = Cytotoxicity against human CNS cancer cells by SRB assay; format: functional; conditions: Cancer cell lines
[13] = test system: MDA-MB-231; assay: Cytotoxicity against human MDA-MB-231 cells by SRB assay; format: functional
[14] = test system: EKVX; assay: Cytotoxicity against human EKVX cells by SRB assay; format: functional
[15] = test system: OVCAR-8; assay: Cytotoxicity against human OVCAR8 cells by SRB assay; format: functional
[16] = test system: SK-OV-3; assay: Cytotoxicity against human SKOV3 cells by SRB assay; format: functional
[17] = Cytotoxicity against human prostate cancer cells by SRB assay; format: functional; conditions: Cancer cell lines
[18] = test system: SN12C; assay: Cytotoxicity against human SN12C cells by SRB assay; format: functional
[19] = test system: KM12; assay: Cytotoxicity against human KM12 cells by SRB assay; format: functional
[20] = test system: IGROV-1; assay: Cytotoxicity against human IGROV1 cells by SRB assay; format: functional
[21] = test system: OVCAR-3; assay: Cytotoxicity against human OVCAR-3 cells by SRB assay; format: functional
[22] = test system: A549; assay: Cytotoxicity against human A549 cells by SRB assay; format: functional
[23] = Cytotoxicity against human 786-O cells by SRB assay; format: functional; conditions: 786-0
[24] = test system: UACC-257; assay: Cytotoxicity against human UACC257 cells by SRB assay; format: functional
[25] = test system: Leukemia cell; assay: Cytotoxicity against human Leukemia cells by SRB assay; format: functional
[26] = test system: UACC-62; assay: Cytotoxicity against human UACC62 cells by SRB assay; format: functional
[27] = test system: CCRF-CEM; assay: Cytotoxicity against human CCRF-CEM cells by SRB assay; format: functional
[28] = test system: PC-3; assay: Cytotoxicity against human PC3 cells by SRB assay; format: functional
[29] = test system: RXF 393; assay: Cytotoxicity against human RXF393 cells by SRB assay; format: functional
[30] = Cytotoxicity against human Colon cancer cells by SRB assay; format: functional; conditions: Cancer cell lines
[31] = test system: SW-620; assay: Cytotoxicity against human SW620 cells by SRB assay; format: functional
[32] = test system: SNB-75; assay: Cytotoxicity against human SNB75 cells by SRB assay; format: functional
[33] = test system: MOLT-4; assay: Cytotoxicity against human MOLT4 cells by SRB assay; format: functional
[34] = Cytotoxicity against human MCF7/ADR cells by SRB assay; format: functional; conditions: NCI/ADR-RES
[35] = test system: SK-MEL-28; assay: Cytotoxicity against human SK-MEL-28 cells by SRB assay; format: functional
[36] = test system: DU-145; assay: Cytotoxicity against human DU145 cells by SRB assay; format: functional
[37] = test system: SK-MEL-2; assay: Cytotoxicity against human SK-MEL-2 cells by SRB assay; format: functional
[38] = Cytotoxicity against human ovarian cancer cells by SRB assay; format: functional; conditions: Cancer cell lines
[39] = test system: SNB-19; assay: Cytotoxicity against human SNB19 cells by SRB assay; format: functional
[40] = test system: HCT-15; assay: Cytotoxicity against human HCT15 cells by SRB assay; format: functional
[41] = test system: NCI-H226; assay: Cytotoxicity against human NCI-H226 cells by SRB assay; format: functional
[42] = test system: K562; assay: Cytotoxicity against human K562 cells by SRB assay; format: functional
[43] = test system: NCI-H23; assay: Cytotoxicity against human NCI-H23 cells by SRB assay; format: functional
[44] = test system: Malme-3M; assay: Cytotoxicity against human MALME-3M cells by SRB assay; format: functional
[45] = test system: CAKI-1; assay: Cytotoxicity against human Caki1 cells by SRB assay; format: functional
[46] = test system: SR; assay: Cytotoxicity against human SR cells by SRB assay; format: functional
[47] = Cytotoxicity against human melanoma cells by SRB assay; format: functional; conditions: Melanoma cell
[48] = test system: HT-29; assay: Cytotoxicity against human HT29 cells by SRB assay; format: functional
[49] = Cytotoxicity against human breast cancer cells by SRB assay; format: functional; conditions: Cancer cell lines
[50] = test system: HOP-92; assay: Cytotoxicity against human HOP92 cells by SRB assay; format: functional
[51] = test system: BT-549; assay: Cytotoxicity against human BT549 cells by SRB assay; format: functional
[52] = test system: OVCAR-5; assay: Cytotoxicity against human OVCAR5 cells by SRB assay; format: functional
[53] = test system: NSCLC; assay: Cytotoxicity against human NSCLC cells by SRB assay; format: functional
[54] = Cytotoxicity against human Hs 578T cells by SRB assay; format: functional
[55] = test system: UO-31; assay: Cytotoxicity against human UO31 cells by SRB assay; format: functional
[56] = Cytotoxicity against human HL60(TB) cells by SRB assay; format: functional, HL-60(TB); conditions: HL-60
[57] = test system: MDA-MB-435; assay: Cytotoxicity against human MDA-MB-435 cells by SRB assay; format: functional
[58] = test system: SK-MEL-5; assay: Cytotoxicity against human SK-MEL-5 cells by SRB assay; format: functional
[59] = test system: A498; assay: Cytotoxicity against human A498 cells by SRB assay; format: functional
[60] = Cytotoxicity against human renal cancer cells by SRB assay; format: functional; conditions: Cancer cell lines
[61] = test system: MDA-N; assay: Cytotoxicity against human MDA-N cells by SRB assay; format: functional
[62] = test system: OVCAR-4; assay: Cytotoxicity against human OVCAR4 cells by SRB assay; format: functional
[63] = test system: HCT-116; assay: Cytotoxicity against human HCT116 cells by SRB assay; format: functional
[64] = test system: COLO 205; assay: Cytotoxicity against human COLO205 cells by SRB assay; format: functional
[65] = test system: T47D; assay: Cytotoxicity against human T47D cells by SRB assay; format: functional
[66] = test system: ACHN; assay: Cytotoxicity against human ACHN cells by SRB assay; format: functional
[67] = test system: U-251; assay: Cytotoxicity against human U251 cells by SRB assay; format: functional

Compound: C=C(C)[C@@H](O)[C@H](O)C[C@H](C)[C@@H]1CC[C@]2(C)C1=CC[C@@H]1[C@@]3(C)CC[C@@H](OC(C)=O)C(C)(C)[C@@H]3C[C@@H](O[C@@H]3O[C@H](COC(C)=O)[C@@H](O)[C@H](O)[C@H]3O)[C@]12C
- GI50 [1]: 2450 nM
- GI50 [2]: 1910 nM
- GI50 [3]: 2630 nM
- GI50 [4]: 2190 nM
- GI50 [5]: 1820 nM
- GI50 [6]: 77.6 nM
- TGI [6]: 900 nM
- GI50 [7]: 2090 nM
- GI50 [8]: 1620 nM
- GI50 [9]: 1860 nM
- GI50 [10]: 2820 nM
- GI50 [11]: 2750 nM
- TGI [12]: 9500 nM
- GI50 [13]: 1860 nM
- GI50 [14]: 3160 nM
- GI50 [15]: 3630 nM
- GI50 [16]: 2880 nM
- TGI [17]: 7000 nM
- GI50 [18]: 3090 nM
- GI50 [19]: 1580 nM
- TGI [19]: 3000 nM
- GI50 [20]: 2340 nM
- GI50 [21]: 1860 nM
- GI50 [22]: 3240 nM
- GI50 [23]: 3720 nM
- GI50 [24]: 2750 nM
- TGI [25]: 5100 nM
- GI50 [26]: 1510 nM
- GI50 [27]: 2240 nM
- GI50 [28]: 2140 nM
- GI50 [29]: 2090 nM
- TGI [30]: 5000 nM
- GI50 [31]: 3020 nM
- TGI [31]: 10400 nM
- GI50 [32]: 1860 nM
- GI50 [33]: 2290 nM
- GI50 [34]: 16200 nM
- GI50 [35]: 2340 nM
- GI50 [36]: 2570 nM
- GI50 [37]: 2000 nM
- TGI [38]: 7400 nM
- GI50 [39]: 3890 nM
- GI50 [40]: 2950 nM
- TGI [40]: 10000 nM
- GI50 [41]: 3020 nM
- GI50 [42]: 1910 nM
- GI50 [43]: 4170 nM
- GI50 [44]: 1580 nM
- GI50 [45]: 2630 nM
- GI50 [46]: 1910 nM
- TGI [47]: 4200 nM
- GI50 [48]: 1910 nM
- TGI [48]: 3800 nM
- TGI [49]: 10700 nM
- GI50 [50]: 2340 nM
- GI50 [51]: 3390 nM
- GI50 [52]: 1910 nM
- TGI [53]: 9000 nM
- GI50 [54]: 2340 nM
- GI50 [55]: 3890 nM
- GI50 [56]: 2090 nM
- GI50 [57]: 1950 nM
- GI50 [58]: 1910 nM
- GI50 [59]: 3890 nM
- TGI [60]: 9700 nM
- GI50 [61]: 2340 nM
- GI50 [62]: 2950 nM
- GI50 [63]: 1860 nM
- TGI [63]: 3500 nM
- GI50 [64]: 2040 nM
- TGI [64]: 3500 nM
- GI50 [65]: 2570 nM
- GI50 [66]: 1910 nM
- GI50 [67]: 2190 nM

Compound: C=C(C=O)[C@H](C)[C@@H]1CC[C@]23C[C@]12CC[C@@H]1[C@@]2(C)CC[C@@H](OC(C)=O)C(C)(C)[C@@H]2C[C@@H](O[C@@H]2O[C@H](COC(C)=O)[C@@H](O)[C@H](O)[C@H]2O)[C@]13C [CUMINDYSODIDE A]
- TGI [6]: 1400 nM
- TGI [12]: 1400 nM
- TGI [19]: 9500 nM
- TGI [25]: 4000 nM
- TGI [30]: 5000 nM
- TGI [31]: 1400 nM
- TGI [38]: 10400 nM
- TGI [40]: 7500 nM
- TGI [47]: 6900 nM
- TGI [48]: 11900 nM
- TGI [53]: 12500 nM
- TGI [60]: 10800 nM
- TGI [63]: 1400 nM
- TGI [64]: 1400 nM

Compound: CC(=O)OC[C@H]1O[C@@H](O[C@@H]2C[C@H]3C(C)(C)[C@H](OC(C)=O)CC[C@]3(C)[C@H]3CC[C@]45C[C@]4(CC[C@H]5[C@@H](C)C[C@@H](O)[C@H](O)C(C)(C)O)[C@@]32C)[C@H](O)[C@@H](O)[C@@H]1O [CUMINGIANOSIDE A]
- TGI [6]: 12900 nM
- TGI [12]: 13300 nM
- TGI [19]: 14200 nM
- TGI [25]: 18500 nM
- TGI [30]: 13900 nM
- TGI [31]: 14400 nM
- TGI [38]: 13600 nM
- TGI [40]: 13900 nM
- TGI [47]: 13700 nM
- TGI [48]: 14300 nM
- TGI [53]: 13100 nM
- TGI [60]: 13500 nM
- TGI [63]: 13800 nM
- TGI [64]: 14000 nM
